# Data as given in US7094789B2, “5-substituted isoquinoline derivatives” (Asahi Kasei Pharma Corporation, priority 2002, dated 2006).
# Legend:
# [1] = tested on: thoracic aorta constricted with phenylephrine; assay: Vasoconstriction inhibitory action (Test Example 2); parameters: species or system Rats (Wistar); settings: test compound 1 μM; aorta constricted with phenylephrine 1 μM
# From the text: Rats (Wistar, 11-week old) were bleeded to death and laparotomized to take out the thoracic aorta. That aorta was cut into a ring of a length of about 3 mm in a conventional manner (Asano, T., et al., J. Pharmacol. Exp. Ther., 241, pp. 1033–1040 (1987)) and hung in 10-ml organ bath filled with Krebs-Hensright nutrient solution bubbled with a mixed gas of 95% O2 and 5% CO2. One end of the blood vessel was connected to an isometric transducer (FD Pickup TB-912T, Nihon Kohden) and applied with 2.5 g of resting tension, and constriction and relaxation reactions of the aorta were recorded. The aorta was constricted with phenylephrine (1 μM, Sigma) and then added with a test compound (1 μM), and the vasoconstriction inhibitory action thereof was observed. The vasoconstriction inhibitory actions of the test compounds are shown in Table 6 mentioned below as the relaxation ratios, which are based on the vasoconstriction with phenylephrine immediately before the addition of the test compound taken as 100%.
# [2] = tested on: neutrophils; assay: Neutrophil migration inhibitory action (Test Example 5); type: cell-based; settings: Homo sapiens, 0.5 h, FMLP 1 μM, Boyden Chamber, 37° C., 30 minutes, read-out: Neutrophil migration inhibition IC50
# Description: Neutrophils were isolated from 50 to 100 ml of peripheral blood collected from healthy donors by the method described in Test Example 1 to obtain a cell suspension (8×10^6/ml). Subsequently, solutions of a test compound at various concentrations were introduced into wells of a 96-well plate in a volume of 125 μl per well, the cell suspension of an equivalent volume was added to it and the plate was preincubated at room temperature for 5 minutes. During the preincubation, FMLP (1 μM, Sigma) solution was added to the lower chamber to set Boyden Chamber, the preincubated cell suspension was added to the upper chamber in a volume of 200 μl per well, and the cells were allowed to migrate at 37° C. under 5% carbon dioxide for 30 minutes. The filter after the migration was collected, and the non-migrated cells adhered to the surface that faced the upper chamber were carefully wiped off. Then, the migrated cells on the back surface were stained with DifQuick dye solution (International Reagents), washed with water and dried, and then absorbance was measured at 595 nm. The inhibition ratio against migration (%) of a test compound was calculated by using the following equation: Migration inhibition ratio (%)=(1−Absorbance of the group with addition of test compound/Absorbance of the group without addition of test compound)×100 […]
# [3] = tested on: phosphorylated myosin regulatory light chain; assay: Action on amount of phosphorylated myosin regulatory light chain in the cells (Test Example 1); type: cell-based; settings: Homo sapiens, Neutrophil, 5 min, human neutrophils; reaction with test compound at 25° C. for 5 minutes; read-out: Inhibition of myosin regulatory light chain phosphorylation (IC50: μM)
# Description: A volume of 50 to 100 ml of peripheral blood collected from healthy volunteers was centrifuged by using Mono-Poly separator solution (Dainippon Pharmaceutical) to prepare a neutrophil containing fraction. The neutrophils were washed with PBS(−) and resuspended in Hanks' Balanced Salt Solution (HBSS+, Gibco) to prepare a cell suspension (8×10^6/ml). The cell suspension was diluted to 5×10^6/ml, introduced into Eppendorf tubes in a volume of 0.4 ml each, then 0.1 ml each of solutions of a test compound at various concentrations were added to the suspension and allowed to react at 25° C. for 5 minutes. […]
# The gel after the electrophoresis was blotted on a nitrocellulose membrane (BioRad), blocked with 5% skim milk, and reacted successively with antibodies pLC1 (Sakurada K. et al, Am. J. Physiol., 274, C1563–C1572 (1998)), which specifically recognize the phosphorylated myosin regulatory light chain, and donkey anti-mouse IgG (Chemicon) conjugated with horseradish peroxidase (HRP-labeled). The band of the phosphorylated myosin regulatory light chain was detected on a film by using ECL Plus Kit (Amersham Pharmacia Biotech). This band was subjected to quantification using a densitometer. By using this value, the inhibitory ratio (%) for phosphorylation of the myosin regulatory light chain was calculated by using the following equation. […]
structure (smiles),measurement,setting,value
"CC1CNCCN1S(=O)(=O)c1cccc2cnccc12 (stereo not drawn) [Example H-7, 1-(5-Isoquinolinesulfonyl)-2-methylpiperazine]",Vasoconstriction inhibitory action (relaxation ratio) (%),[1],22.0%
same,IC50,[2],> 40 µM
same,IC50,[3],80 µM
